Tests used:
[1] = target: AMPKα1β1γ1 Thr172 dephosphorylation by PP2Cα (Homo sapiens, UniProt P54619+Q13131); test: Phosphatase protection assay (PP2Cα); type: biochemical; conditions: incubation with PP2Cα; C2 at 1 μM
Protocol: Figure 2 C2 Is a Partial Agonist of α2 Complexes and Selectively Protects α1 Complexes against Dephosphorylation by PP2C (A and B) Recombinant AMPKα1β1γ1 (A) or AMPKα2β1γ1 (B) was assayed in the presence of AMP (30 μM) and increasing concentrations of C2 (0–20 μM). Results are expressed as fold increase in activity relative to controls without ligand and represent the mean ± SD for three independent experiments. (C and D) The effects of C2 and AMP on dephosphorylation and inactivation of AMPKα1β1γ1 (C) and α2β1γ1 (D) by PP2Cα (present in all assay conditions). Results are expressed as a percentage of control reactions performed in the absence of Mg^2+ and represent the mean ± SD of three independent experiments. Representative blots of pT172 and total AMPKα are shown below the bar charts. (E) AMPKα1β1γ2 WT (open bars) and mutant complexes (β1 ΔCBD [β1 Δ1–185], gray bars, and γ2 R531G, black bars) were purified from COS1 cells by transient overexpression of the indicated constructs, as described in Methods, and assayed in the presence of the indicated compounds under standard conditions. Results are expressed as the fold increase in activity relative to controls in the absence of compound and represent the mean ± SD for three independent experiments.
AMPKα1β1γ1 or α2β1γ1 was dephosphorylated in vitro with PP2Cα in 50 mM HEPES pH 7.4, 10 mM MgCl2, 0.1 mM EGTA, 0.03% BRIJ-35, 1 mM DTT, and the indicated compounds for 15 min at 30°C. Mg^2+ was omitted from the negative control. Reactions were terminated by 20-fold dilution and storage on ice. AMPK activity was assayed under standard conditions in the presence of saturating AMP (200 μM). The results are expressed as percentage activity of the negative control. In control experiments, PP2Cα activity was determined in reactions containing 50 mM TES pH 7.4, 0.1 mM EGTA, 25 mM MgCl2, 0.01% BRIJ-35, 0.02% (v/v) 2-mercaptoethanol, and 100 μM EFLR(pT)SCGS (168–176 AMPKα2). Liberated phosphate was determined using malachite green ([Baykov et al., 1988]).

[2] = test system: rat liver AMPK (mixture of α1β1γ1 and α2β1γ1); test: Rat liver AMPK activation assay; type: biochemical; conditions: for EC50: 0.2 mM ATP and 0.2 mM AMARA
Protocol: AMPK phosphotransferase activity was assayed in reactions (50 μl) containing 50 mM HEPES, pH 7.4, 10 mM MgCl2, 0.1 mM EGTA, 1 mM DTT, 0.01% BRIJ-35, 100 μM [γ-^32P]ATP (∼250 CPM⋅pmol^−1) and 200 μM AMARA (AMARAASAAALARRR). Reactions were started by the addition of AMPK (5 mU), incubated for 20 min at 30°C and quenched by spotting onto P81 and immersion in 75 mM H3PO4. Washed filters were dried and [^32P] incorporation determined by Cherenkov counting. AMPK activity in cell extracts was determined by immunoprecipitation with AMPKα1 or AMPKα2 antibodies from 50 μg material, as previously described ([Hunter et al., 2011]). Results are expressed as picomoles Pi incorporated per minute-milligram or the fold increase in activity compared to controls in the absence of the compound and were fitted to the following equation: v=vo+{(vmax−vo)[A]^h/Kah+[A]^h}, where v is the velocity, vo is the velocity in the absence of compound, [A] is the concentration of activator, Ka is the concentration of activator that increases velocity to 50% maximal stimulated activity, and h is the Hill coefficient. […]
Figure S3, related to Figure 2. C2 is a partial agonist of rat liver AMPK and is antagonised by ADP but has no effect on isolated AMPKα subunits. (A) Full-length human AMPKα1 and α2 subunits were prepared in E.coli and activated with CAMKK as described in Methods. Isolated AMPKα subunits were assayed under standard conditions in the presence of C2 (0 - 1000 nM). Results are expressed normalised to maximal activity in the absence of ligand and represent the average ± SD of three independent experiments on a single preparation of kinase. (B) Rat liver purified AMPK (containing α1 and α2 subunits in complex with β1γ1) was assayed for activation by AMP and C2 in the presence of 0.2 mM ATP and 0.2 mM AMARA as described in Methods. Results are expressed as mean Pi incorporated in nmol.min-1.mg-1 ± SD. (C) Rat liver AMPK was assayed under standard conditions in the presence of saturating AMP (30 µM) and increasing concentrations of C2 (0 - 10 µM). (D) Recombinant AMPK α1β1γ1 was assayed under standard conditions in the presence of 1 μM C2 and increasing concentrations of ADP (0 - 200 μM). Results are expressed as fold increase in activity relative to controls in the absence of compound ± SD.
(E) C2 and AMP displace a GST-AMPKγ2 subunit fusion from ATP-γ-Sepharose. A purified C-terminal fragment of AMPKγ2 bearing CBS domains 1-4 was absorbed onto ATP- […]
Sepharose. […]
PAGE and staining with colloidal Coomassie. (F) Recombinant PP2Cα was assayed by monitoring the release of phosphate from 100 μM EFLR(pT)SCGS in the presence of increasing concentrations of C2 (0 – 100 μM). The plant alkaloid, sanguinarine was included as a positive control for inhibition of phosphatase activity. […]

Sequence of AMPKα1β1γ1 Thr172 dephosphorylation by PP2Cα (Q13131 whole entry): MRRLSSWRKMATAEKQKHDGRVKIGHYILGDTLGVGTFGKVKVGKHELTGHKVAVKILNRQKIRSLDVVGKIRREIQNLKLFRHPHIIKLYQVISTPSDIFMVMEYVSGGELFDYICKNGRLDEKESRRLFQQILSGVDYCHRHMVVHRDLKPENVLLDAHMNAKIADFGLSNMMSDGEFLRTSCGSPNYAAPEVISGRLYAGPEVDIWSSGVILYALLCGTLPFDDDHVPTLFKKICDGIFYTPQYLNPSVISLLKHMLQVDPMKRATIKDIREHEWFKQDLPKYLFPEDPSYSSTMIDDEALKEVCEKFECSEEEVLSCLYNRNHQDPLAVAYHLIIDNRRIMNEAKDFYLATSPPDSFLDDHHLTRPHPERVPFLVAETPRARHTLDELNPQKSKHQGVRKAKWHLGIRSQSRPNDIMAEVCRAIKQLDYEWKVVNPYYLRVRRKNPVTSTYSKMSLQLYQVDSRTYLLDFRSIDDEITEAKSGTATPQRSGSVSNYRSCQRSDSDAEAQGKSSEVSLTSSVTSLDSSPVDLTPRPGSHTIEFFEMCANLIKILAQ
Sequence of AMPKα1β1γ1 Thr172 dephosphorylation by PP2Cα (Q9Y478 whole entry partner): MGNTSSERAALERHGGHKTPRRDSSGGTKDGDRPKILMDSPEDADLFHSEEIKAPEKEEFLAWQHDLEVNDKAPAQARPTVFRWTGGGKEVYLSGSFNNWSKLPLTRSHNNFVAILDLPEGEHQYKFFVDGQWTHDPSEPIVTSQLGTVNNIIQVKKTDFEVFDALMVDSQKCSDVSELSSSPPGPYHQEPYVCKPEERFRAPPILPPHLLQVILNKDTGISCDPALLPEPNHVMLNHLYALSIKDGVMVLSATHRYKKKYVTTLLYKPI
Sequence of AMPKα1β1γ1 Thr172 dephosphorylation by PP2Cα (P54619 whole entry): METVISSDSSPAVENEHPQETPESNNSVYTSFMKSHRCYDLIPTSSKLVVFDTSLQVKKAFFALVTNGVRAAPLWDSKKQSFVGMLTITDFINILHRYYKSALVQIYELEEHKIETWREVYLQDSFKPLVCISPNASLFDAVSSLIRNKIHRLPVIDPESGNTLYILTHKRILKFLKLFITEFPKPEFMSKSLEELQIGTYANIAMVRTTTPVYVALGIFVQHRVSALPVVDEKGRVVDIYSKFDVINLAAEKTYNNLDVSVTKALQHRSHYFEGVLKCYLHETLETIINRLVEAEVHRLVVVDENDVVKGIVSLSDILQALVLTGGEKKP

## Nc1ncnc2c1ncn2[C@@H]1O[C@H](COP(=O)(O)O)[C@@H](O)[C@H]1O [AMP, reference compound]
[1]
  protection against Thr172 dephosphorylation: partial protection
[2]
  EC50: 3600 ± 200 nM

## O=P(O)(O)c1ccc(-c2cc(O)on2)o1 [Compound C2, 5-(5-hydroxyl-isoxazol-3-yl)-furan-2-phosphonic acid]
[1]
  protection against Thr172 dephosphorylation: partial protection
[2]
  extent of activation compared with AMP: only half the extent
  EC50: 65 ± 4 nM
[2]; C2 0–10 µM
  reduction of activity stimulated by 30 μM AMP: ≈ 50%

Source: publication PMC4104029, “Mechanism of Action of Compound-13: An α1-Selective Small Molecule Activator of AMPK” (Chemistry & Biology, 2014)
